Data from ChEMBL document CHEMBL2203240, “Synthesis of propiophenone derivatives as new class of antidiabetic agents reducing body weight in db/db mice” (Bioorg Med Chem, 2012).
pIC50: −log10 of the molar value. Active and inactive are the calls of the source. The rule behind the calls is not given here.

Experiments:
[1] = system: Rattus norvegicus; experiment: Antihyperglycemic activity against sucrose loaded Charles Foster/Wistar albino rat assessed as reduction in blood glucose level at 100 mg/kg, po administered 30 mins before sucrose challenge by glucometer; format: functional; parameters: scale not given: the % may be the effect or the level left
[2] = target: T1, Glucose-6-phosphatase catalytic subunit 1 (Homo sapiens) (UniProt P35575); experiment: Inhibition of glucose-6-phosphatase at 100 uM
T1 sequence (whole entry): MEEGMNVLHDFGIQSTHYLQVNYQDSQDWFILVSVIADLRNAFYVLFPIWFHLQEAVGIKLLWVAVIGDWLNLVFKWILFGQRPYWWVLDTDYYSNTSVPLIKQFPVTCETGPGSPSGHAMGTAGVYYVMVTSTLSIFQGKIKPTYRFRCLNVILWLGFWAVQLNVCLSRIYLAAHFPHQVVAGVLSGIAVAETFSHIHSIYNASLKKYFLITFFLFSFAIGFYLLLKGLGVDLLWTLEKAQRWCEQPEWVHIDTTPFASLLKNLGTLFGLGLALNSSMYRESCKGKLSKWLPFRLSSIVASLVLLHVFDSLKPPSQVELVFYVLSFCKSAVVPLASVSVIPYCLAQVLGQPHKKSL

[3] = Inhibition of glycogen phosphorylase at 100 uM
[4] = Inhibition of alpha-glucosidase at 100 uM
[5] = target: Dipeptidyl peptidase 4 (Homo sapiens) (UniProt P27487); experiment: Inhibition of DPP4 at 100 uM
[6] = target: T2, Tyrosine-protein phosphatase non-receptor type 1 (Homo sapiens) (UniProt P18031); experiment: Inhibition of PTP1B at 100 uM
T2 sequence (whole entry): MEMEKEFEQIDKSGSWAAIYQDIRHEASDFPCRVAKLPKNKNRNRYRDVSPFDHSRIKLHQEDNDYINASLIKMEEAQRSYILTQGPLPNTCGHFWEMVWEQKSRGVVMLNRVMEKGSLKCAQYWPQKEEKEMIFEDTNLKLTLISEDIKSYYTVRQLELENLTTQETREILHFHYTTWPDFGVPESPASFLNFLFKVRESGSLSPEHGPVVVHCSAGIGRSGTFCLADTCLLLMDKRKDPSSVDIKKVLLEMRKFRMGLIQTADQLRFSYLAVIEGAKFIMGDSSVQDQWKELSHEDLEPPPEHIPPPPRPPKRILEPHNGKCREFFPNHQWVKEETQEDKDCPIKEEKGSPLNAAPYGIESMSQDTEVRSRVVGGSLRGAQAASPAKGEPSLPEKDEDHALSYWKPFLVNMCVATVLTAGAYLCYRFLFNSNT

[7] = target: T3, Tyrosine-protein phosphatase non-receptor type 1 (Homo sapiens, UniProt P18031); experiment: Inhibition of PTP1B
T3 sequence (P18031 whole entry): T2 sequence (whole entry)

[8] = system: Rattus norvegicus; experiment: Antihyperglycemic activity against sucrose challenged streptozotocin-induced diabetic Sprague-Dawley albino rat assessed as reduction of AUC of plasma glucose level at 100 mg/kg, po after 1 to 5 hrs administered 30 mins before sucrose challenge by glucometer; format: functional; parameters: scale not given: the % may be the effect or the level left
[9] = system: Rattus norvegicus; experiment: Antihyperglycemic activity against sucrose challenged streptozotocin-induced diabetic Sprague-Dawley albino rat assessed as reduction of AUC of plasma glucose level at 100 mg/kg, po after 1 to 24 hrs administered 30 mins before sucrose challenge by glucometer; format: functional; parameters: scale not given: the % may be the effect or the level left
[10] = system: Mus musculus; experiment: Antihyperglycemic activity in C57BL/Ks db/db mouse assessed as reduction in postprandial hyperglycemia at 30 mg/kg, po measured for 10 days post dose relative to control; format: functional; parameters: scale not given: the % may be the effect or the level left
[11] = system: Mus musculus; experiment: Antihyperglycemic activity in C57BL/Ks db/db mouse assessed as reduction in blood glucose level at 30 mg/kg/day, po measured on day 6 post dose by postprandial oral glucose tolerance test relative to control; format: functional; parameters: scale not given: the % may be the effect or the level left
[12] = system: Mus musculus; experiment: Antihyperglycemic activity in C57BL/Ks db/db mouse assessed as reduction in blood glucose level at 30 mg/kg/day, po measured day 10 post dose by postprandial oral glucose tolerance test relative to control; format: functional; parameters: scale not given: the % may be the effect or the level left
[13] = system: Mus musculus; experiment: Antidyslipidemic activity in C57BL/Ks db/db mouse assessed as reduction in plasma triglyceride level at 30 mg/kg/day, po relative to control; format: functional; parameters: scale not given: the % may be the effect or the level left
[14] = system: Mus musculus; experiment: Antidyslipidemic activity in C57BL/Ks db/db mouse assessed as reduction in plasma total cholesterol at 30 mg/kg/day, po relative to control; format: functional; parameters: scale not given: the % may be the effect or the level left
[15] = system: Mus musculus; experiment: Antidyslipidemic activity in C57BL/Ks db/db mouse assessed as increase in HDL-cholesterol at 30 mg/kg/day, po relative to control; format: functional
[16] = system: Mus musculus; experiment: Antihyperglycemic activity in C57BL/Ks db/db mouse assessed as reduction in insulin level at 30 mg/kg/day, po relative to control; format: functional; parameters: scale not given: the % may be the effect or the level left
[17] = system: Mus musculus; experiment: Antiobesity activity in C57BL/Ks db/db mouse assessed as reduction in body weight change at 30 mg/kg/day, po measured for 10 days relative to control; format: functional, organism-based
[18] = system: Mus musculus; experiment: Reduction in food intake in C57BL/Ks db/db mouse at 30 mg/kg/day, po measured from day 3 to day 10; format: functional, organism-based

Chain of Dipeptidyl peptidase 4 (Homo sapiens) (P27487 whole entry, looked up): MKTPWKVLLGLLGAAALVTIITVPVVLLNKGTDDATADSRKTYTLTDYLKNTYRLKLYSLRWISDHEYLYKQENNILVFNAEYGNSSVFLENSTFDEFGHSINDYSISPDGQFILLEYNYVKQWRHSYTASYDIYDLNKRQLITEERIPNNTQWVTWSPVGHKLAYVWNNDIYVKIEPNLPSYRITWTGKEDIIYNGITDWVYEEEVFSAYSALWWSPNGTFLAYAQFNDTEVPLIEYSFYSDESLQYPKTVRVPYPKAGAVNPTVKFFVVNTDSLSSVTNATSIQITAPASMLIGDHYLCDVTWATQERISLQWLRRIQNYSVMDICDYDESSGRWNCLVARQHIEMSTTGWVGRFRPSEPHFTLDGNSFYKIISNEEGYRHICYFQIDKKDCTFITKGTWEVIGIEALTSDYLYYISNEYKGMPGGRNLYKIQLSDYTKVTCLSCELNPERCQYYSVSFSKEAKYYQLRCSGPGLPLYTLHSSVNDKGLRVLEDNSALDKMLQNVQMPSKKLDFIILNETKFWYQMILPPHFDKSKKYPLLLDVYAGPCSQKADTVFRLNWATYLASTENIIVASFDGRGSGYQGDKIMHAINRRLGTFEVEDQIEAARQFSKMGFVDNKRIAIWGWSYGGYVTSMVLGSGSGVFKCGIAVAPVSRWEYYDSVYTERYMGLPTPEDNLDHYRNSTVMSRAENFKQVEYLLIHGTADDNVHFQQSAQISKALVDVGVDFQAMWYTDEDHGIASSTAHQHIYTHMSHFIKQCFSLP

SMILES: CCCCNCCCOc1cccc(O)c1C(=O)CC
- Activity [1]: 11%
- inhibition [2]: 18.3%
- inhibition [3]: 24.8%
- inhibition [4]: < 5%
- inhibition [5]: 17.4%
- inhibition [6]: 52.1%
- pIC50 [7]: 4.72

SMILES: CCC(=O)c1c(O)cccc1OCCN(C)C
- Activity [1]: 19.45%
- Activity [8]: 12.1%
- Activity [9]: 7.4%
- inhibition [2]: 11.3%
- inhibition [3]: < 5%
- inhibition [4]: 18.4%
- inhibition [5]: 24.2%
- inhibition [6]: 19.3%

SMILES: CCC(=O)c1c(O)cccc1OCCCN1CCCC1
- Activity [1]: 26.8%
- Activity [8]: 16.9%
- Activity [9]: 14.8%
- inhibition [2]: 13.6%
- inhibition [3]: 19.5%
- inhibition [4]: < 5%
- inhibition [5]: 25.6%
- inhibition [6]: 42.1%

SMILES: CCC(=O)c1c(O)cccc1OCCN1CCCC1
- Activity [1]: 21.08%
- inhibition [2]: < 5%
- inhibition [3]: 13.7%
- inhibition [4]: 28.9%
- inhibition [5]: < 5%
- inhibition [6]: 36.4%

SMILES: CCC(=O)c1c(O)cccc1OCCN1CCCCC1
- Activity [1]: 40.4%
- Activity [8]: 29.2%
- Activity [9]: 19.7%
- inhibition [2]: 21.3%
- inhibition [3]: < 5%
- inhibition [4]: < 5%
- inhibition [5]: < 5%
- inhibition [6]: 27.5%

SMILES: CCC(=O)c1c(O)cccc1OCCN(CC)CC
- Activity [1]: 38.4%
- Activity [8]: 23%
- Activity [9]: 20.4%
- inhibition [2]: 11.6%
- inhibition [3]: < 5%
- inhibition [4]: 19.3%
- inhibition [5]: < 5%
- inhibition [6]: 28.8%

SMILES: CCOC(=O)C(CCCOc1cccc(OCCN2CCCCC2)c1C(=O)CC)C(=O)OCC
- Activity [1]: 16.4%
- inhibition [2]: < 5%
- inhibition [3]: < 5%
- inhibition [4]: < 5%
- inhibition [5]: < 5%
- inhibition [6]: 19.6%

SMILES: CCC(=O)c1c(O)cccc1OCCCNc1ccc(OC)cc1
- Activity [1]: 54.6%
- Activity [8]: 22.1%
- Activity [9]: 22.8%
- Activity [10]: 23.9%
- Activity [11]: 28.4%
- Activity [12]: 29.9%
- Activity [13]: 22%
- Activity [14]: 14.8%
- Activity [15]: 7.2%
- Activity [16]: 23.6%
- Activity [17]: Active
- Activity [18]: Active
- inhibition [2]: < 5%
- inhibition [3]: 23%
- inhibition [4]: 19.3%
- inhibition [5]: 13.7%
- inhibition [6]: 83.6%
- pIC50 [7]: 5.08

SMILES: CCC(=O)c1c(O)cccc1OCCCN1CCCCC1
- Activity [1]: 33.2%
- Activity [8]: 10.2%
- Activity [9]: 8.6%
- inhibition [2]: < 5%
- inhibition [3]: < 5%
- inhibition [4]: < 5%
- inhibition [5]: < 5%
- inhibition [6]: 31.8%

SMILES: CN(CCOc1ccc(CC2SC(=O)NC2=O)cc1)c1ccccn1 (centres undefined) [ROSIGLITAZONE]
- Activity [10]: 51.3%
- Activity [11]: 33.9%
- Activity [12]: 46.5%

SMILES: CCOC(=O)C(CCCOc1cccc(OCCCNc2ccc(C)cc2)c1C(=O)CC)C(=O)OCC
- Activity [1]: 8.49%
- inhibition [2]: < 5%
- inhibition [3]: < 5%
- inhibition [4]: 11.8%
- inhibition [5]: < 5%
- inhibition [6]: 42.6%

SMILES: CCOC(=O)C(CCCOc1cccc(OCCN(CC)CC)c1C(=O)CC)C(=O)OCC
- Activity [1]: 17%
- inhibition [2]: < 5%
- inhibition [3]: 22.9%
- inhibition [4]: < 5%
- inhibition [5]: < 5%
- inhibition [6]: 40.4%

SMILES: CCCCN(C)CCCOc1cccc(O)c1C(=O)CC
- Activity [1]: 23.8%
- Activity [8]: 27.5%
- Activity [9]: 21.5%
- Activity [10]: 39.6%
- Activity [11]: 26.7%
- Activity [12]: 33.6%
- Activity [13]: 23.8%
- Activity [14]: 20.4%
- Activity [15]: 4.03%
- Activity [16]: 27.7%
- Activity [17]: Active
- Activity [18]: Active
- inhibition [2]: 17.3%
- inhibition [3]: < 5%
- inhibition [4]: < 5%
- inhibition [5]: < 5%
- inhibition [6]: 31.9%

SMILES: CN(C)C(=N)NC(=N)N [METFORMIN]
- Activity [1]: 18.9%

SMILES: CCOC(=O)C(CCCOc1cccc(OCCN(C)C)c1C(=O)CC)C(=O)OCC
- Activity [1]: 11.5%
- inhibition [2]: < 5%
- inhibition [3]: < 5%
- inhibition [4]: < 5%
- inhibition [5]: < 5%
- inhibition [6]: 51.1%
- pIC50 [7]: 4.69

SMILES: CCC(=O)c1c(O)cccc1OCCCNc1ccc(C)cc1
- Activity [1]: 28.7%
- Activity [8]: 3.02%
- Activity [9]: 2.02%
- inhibition [2]: 18.9%
- inhibition [3]: < 5%
- inhibition [4]: 18.9%
- inhibition [5]: < 5%
- inhibition [6]: 79.8%
- pIC50 [7]: 4.90

SMILES: CCOC(=O)C(CCCOc1cccc(OCCN2CCCC2)c1C(=O)CC)C(=O)OCC
- Activity [1]: 22.9%
- inhibition [2]: 13.9%
- inhibition [3]: < 5%
- inhibition [4]: < 5%
- inhibition [5]: 18.3%
- inhibition [6]: 58.6%
- pIC50 [7]: 4.73

SMILES: COc1ccc(Cl)cc1C(=O)NCCc1ccc(S(=O)(=O)NC(=O)NC2CCCCC2)cc1 [GLYBURIDE]
- Activity [1]: 32.3%
